Values joined by “and” are separate entries in the source; they are usually repeats but may differ in a detail not shown here. Identical values can stand only once. Toxic doses and inconclusive results are not listed.
Tested on: CD2F1 mice, L1210 leukemia ip, survival T/C
Test: NCI In Vivo Anticancer Drug Screen. Data for tumor model L1210 Leukemia (intraperitoneal) in CD2F1 (CDF1) mice
Settings: higher = longer survival
Outline: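 Ratio T/C, where T is the treated-group value and C the vehicle-dosed control value, from mice implanted with a transplantable tumor.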

[1] = endpoint: mean survival time, dose: 100.0 mg/kg/injection, schedule: Q01DX001 (ip), vehicle: saline with Tween-80
[2] = endpoint: mean survival time, dose: 200.0 mg/kg/injection, schedule: Q01DX001 (ip), vehicle: saline with Tween-80
[3] = endpoint: mean survival time, dose: 200.0 mg/kg/injection, schedule: Q01DX009 (ip), vehicle: saline with Tween-80
[4] = endpoint: mean survival time, dose: 100.0 mg/kg/injection, schedule: Q01DX009 (ip), vehicle: saline with Tween-80
[5] = endpoint: mean survival time, dose: 400.0 mg/kg/injection, schedule: Q01DX009 (ip), vehicle: saline with Tween-80
[6] = endpoint: mean survival time, dose: 100.0 mg/kg/injection, schedule: Q04DX002 (ip), vehicle: saline with Tween-80

Compound: O=C(NC1=C(N2CC2)C(=O)C(NC(=O)OCCO)=C(N2CC2)C1=O)OCCO
- T/C (endpoint: mean survival time, dose: 0.18 mg/kg/injection, schedule: Q01DX009 (ip), vehicle: saline): 109 % of control and 112 % of control
- T/C (endpoint: mean survival time, dose: 0.39 mg/kg/injection, schedule: Q01DX009 (ip), vehicle: saline): 113 % of control and 104 % of control
- T/C (endpoint: mean survival time, dose: 0.75 mg/kg/injection, schedule: Q01DX009 (ip), vehicle: saline): 117 % of control and 120 % of control

Compound: Nc1nc(N)c(-c2ccc(Cl)cc2)c(/C=C/C=C/c2ccc([N+](=O)[O-])cc2)n1
- T/C (endpoint: mean survival time, dose: 50.0 mg/kg/injection, schedule: Q01DX001 (ip), vehicle: saline with Tween-80): 97 % of control
- T/C [1]: 92 % of control
- T/C [2]: 101 % of control

Compound: C1CCC(CCCC(CCCC2CCCCC2)CCCC2CCCCC2)CC1
- T/C [1]: 94 % of control
- T/C [2]: 91 % of control
- T/C (endpoint: mean survival time, dose: 400.0 mg/kg/injection, schedule: Q01DX001 (ip), vehicle: saline with Tween-80): 88 % of control

Compound: Nc1nc(F)nc2c1ncn2C1OC(CO)C(O)C1O (stereo unspecified)
- T/C (endpoint: mean survival time, dose: 100.0 mg/kg/injection, schedule: Q01DX001 (ip), vehicle: other): 105 % of control
- T/C (endpoint: mean survival time, dose: 111.0 mg/kg/injection, schedule: Q01DX009 (ip), vehicle: saline with Tween-80): 187 % of control
- T/C (endpoint: mean survival time, dose: 133.0 mg/kg/injection, schedule: Q01DX005 (ip), vehicle: saline with Tween-80): 154 % of control
- T/C (endpoint: mean survival time, dose: 133.0 mg/kg/injection, schedule: Q01DX009 (ip), vehicle: saline with Tween-80): 227 % of control and 276 % of control
- T/C (endpoint: mean survival time, dose: 156.0 mg/kg/injection, schedule: Q01DX009 (ip), vehicle: saline with Tween-80): 393 % of control
- T/C (endpoint: mean survival time, dose: 178.0 mg/kg/injection, schedule: Q01DX005 (ip), vehicle: saline with Tween-80): 179 % of control
- T/C (endpoint: mean survival time, dose: 178.0 mg/kg/injection, schedule: Q01DX009 (ip), vehicle: saline with Tween-80): 473 % of control
- T/C (endpoint: mean survival time, dose: 200.0 mg/kg/injection, schedule: Q01DX001 (ip), vehicle: other): 109 % of control
- T/C [3]: 563 % of control
- T/C (endpoint: mean survival time, dose: 222.0 mg/kg/injection, schedule: Q01DX009 (ip), vehicle: saline with Tween-80): 333 % of control
- T/C (endpoint: mean survival time, dose: 400.0 mg/kg/injection, schedule: Q01DX001 (ip), vehicle: other): 105 % of control

Compound: CC1CCC2(C)CCC3(C)C4=CCC5C(C)(C)C(O)CCC5(C)C4CCC3(C)C2C1C (stereo unspecified)
- T/C (endpoint: mean survival time, dose: 200.0 mg/kg/injection, schedule: Q04DX003 (ip), vehicle: saline): 89 % of control
- T/C (endpoint: mean survival time, dose: 400.0 mg/kg/injection, schedule: Q04DX003 (ip), vehicle: saline): 96 % of control

Compound: O=C(CC(=O)c1ccccc1)CC(=O)c1ccccc1
- T/C [4]: 98 % of control
- T/C [3]: 100 % of control
- T/C [5]: 102 % of control

Compound: c1ccc2nc(N3CCCCC3)ccc2c1
- T/C (endpoint: mean survival time, dose: 25.0 mg/kg/injection, schedule: Q04DX002 (ip), vehicle: saline with Tween-80): 94 % of control
- T/C (endpoint: mean survival time, dose: 50.0 mg/kg/injection, schedule: Q04DX002 (ip), vehicle: saline with Tween-80): 94 % of control
- T/C [6]: 94 % of control

Compound: C/C=C/C=C\C=C/C(O)CC(OP(=O)(O)O)C(C)(O)/C=C/C1CC=CC(=O)O1 (stereo unspecified)
- T/C (endpoint: median survival time, dose: 0.38 mg/kg/injection, schedule: Q01DX009 (ip), vehicle: water): 116 % of control
- T/C (endpoint: median survival time, dose: 1.5 mg/kg/injection, schedule: Q01DX009 (ip), vehicle: water): 180 % of control
- T/C (endpoint: median survival time, dose: 3.0 mg/kg/injection, schedule: Q01DX009 (ip), vehicle: water): 153 % of control and 168 % of control
- T/C (endpoint: median survival time, dose: 6.0 mg/kg/injection, schedule: Q01DX009 (ip), vehicle: water): 120 % of control and 226 % of control

Compound: O=S(=O)(Cl)OC(CCl)C(OS(=O)(=O)Cl)C(OS(=O)(=O)Cl)C(CCl)OS(=O)(=O)Cl (stereo unspecified)
- T/C [4]: 92 % of control
- T/C [3]: 100 % of control
- T/C [5]: 100 % of control

Compound: CC(C)C1CCC(C)C(C(CC(=O)c2ccccc2)c2ccccc2)C1=O (stereo unspecified)
- T/C [6]: 97 % of control
- T/C (endpoint: mean survival time, dose: 200.0 mg/kg/injection, schedule: Q04DX002 (ip), vehicle: saline with Tween-80): 90 % of control
- T/C (endpoint: mean survival time, dose: 400.0 mg/kg/injection, schedule: Q04DX002 (ip), vehicle: saline with Tween-80): 101 % of control

Compound: CC(=O)Nc1ccc(C(C)=O)cc1[N+](=O)[O-]
- T/C [4]: 91 % of control
- T/C (endpoint: mean survival time, dose: 100.0 mg/kg/injection, schedule: Q04DX003 (ip), vehicle: saline with Tween-80): 101 % of control
- T/C [3]: 95 % of control
- T/C (endpoint: mean survival time, dose: 200.0 mg/kg/injection, schedule: Q04DX003 (ip), vehicle: saline with Tween-80): 100 % of control
- T/C [5]: 95 % of control
- T/C (endpoint: mean survival time, dose: 400.0 mg/kg/injection, schedule: Q04DX003 (ip), vehicle: saline with Tween-80): 100 % of control

Compound: CCCCCCCCCCCCc1ccc(CSC(C(=O)OC)C(SCc2ccc(CCCCCCCCCCCC)cc2)C(=O)OC)cc1 (stereo unspecified)
- T/C (endpoint: mean survival time, dose: 100.0 mg/kg/injection, schedule: Q01DX009 (ip), vehicle: saline): 102 % of control
- T/C (endpoint: mean survival time, dose: 200.0 mg/kg/injection, schedule: Q01DX009 (ip), vehicle: saline): 100 % of control
- T/C (endpoint: mean survival time, dose: 400.0 mg/kg/injection, schedule: Q01DX009 (ip), vehicle: saline): 104 % of control

Compound: CC1=C(N2CC2C)C(=O)c2c(COC(N)=O)c3n(c2C1=O)CC1NC31 (stereo unspecified)
- T/C (endpoint: mean survival time, dose: 2.5 mg/kg/injection, schedule: Q01DX001 (ip), vehicle: distilled water + Tween-80): 111 % of control
- T/C (endpoint: mean survival time, dose: 5.0 mg/kg/injection, schedule: Q01DX001 (ip), vehicle: distilled water + Tween-80): 101 % of control
- T/C (endpoint: mean survival time, dose: 10.0 mg/kg/injection, schedule: Q01DX001 (ip), vehicle: distilled water + Tween-80): 111 % of control
- T/C (endpoint: mean survival time, dose: 20.0 mg/kg/injection, schedule: Q01DX001 (ip), vehicle: distilled water + Tween-80): 122 % of control

Reference: PubChem BioAssay AID256 (DTP/NCI, 2004)
